Biological target: T1, PI3K alpha (Homo sapiens, UniProt P42336)
T1 construct: purchased Millipore Upstate
Test: P110 Alpha TR-FRET Assay (PI3K alpha kinase assay, HTRF Transcreener ADP Assay)
Format: biochemical
Settings: PI3K (WT)
Summary of the method: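 HTRF Transcreener ADP read-out of ADP formed by PI3K (50 ng enzyme) in 50 mM HEPES pH 7.5, 5 mM MgCl2, 1 mM DTT, 30 μM Na3VO4. Compound preincubated with enzyme 20 min; reaction started with 10 μM ATP and 5 μM PIP2, run 20 min, then ADP-d2/anti-ADP cryptate detection for 1 h.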

T1 sequence (P42336 whole entry): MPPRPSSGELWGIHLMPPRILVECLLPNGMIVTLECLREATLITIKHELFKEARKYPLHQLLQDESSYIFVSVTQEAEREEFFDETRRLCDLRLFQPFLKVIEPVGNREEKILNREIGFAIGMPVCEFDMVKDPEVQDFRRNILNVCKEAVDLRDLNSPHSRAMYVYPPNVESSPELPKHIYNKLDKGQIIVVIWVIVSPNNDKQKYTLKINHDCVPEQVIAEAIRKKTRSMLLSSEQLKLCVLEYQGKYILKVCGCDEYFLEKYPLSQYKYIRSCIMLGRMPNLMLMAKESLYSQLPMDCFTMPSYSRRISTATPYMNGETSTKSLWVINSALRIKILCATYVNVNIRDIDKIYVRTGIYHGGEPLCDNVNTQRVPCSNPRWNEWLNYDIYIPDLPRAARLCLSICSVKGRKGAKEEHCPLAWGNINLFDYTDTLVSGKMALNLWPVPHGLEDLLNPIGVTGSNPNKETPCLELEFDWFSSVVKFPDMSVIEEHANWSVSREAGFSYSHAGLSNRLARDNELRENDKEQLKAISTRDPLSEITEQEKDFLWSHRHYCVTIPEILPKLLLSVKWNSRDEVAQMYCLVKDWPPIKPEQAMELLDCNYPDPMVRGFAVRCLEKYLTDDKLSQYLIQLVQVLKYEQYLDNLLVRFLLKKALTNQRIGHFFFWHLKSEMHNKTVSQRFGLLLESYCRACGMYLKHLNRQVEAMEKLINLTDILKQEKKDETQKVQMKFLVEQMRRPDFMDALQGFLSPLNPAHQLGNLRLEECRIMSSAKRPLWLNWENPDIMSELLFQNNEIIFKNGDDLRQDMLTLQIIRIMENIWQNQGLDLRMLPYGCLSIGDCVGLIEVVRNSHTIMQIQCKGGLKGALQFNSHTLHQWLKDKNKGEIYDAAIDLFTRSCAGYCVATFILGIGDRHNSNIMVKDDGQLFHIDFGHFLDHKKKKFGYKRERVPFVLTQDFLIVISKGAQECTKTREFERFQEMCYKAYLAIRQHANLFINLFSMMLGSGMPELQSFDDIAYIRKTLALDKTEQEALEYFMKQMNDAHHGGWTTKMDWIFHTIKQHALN
T1 sequence (P27986 whole entry partner): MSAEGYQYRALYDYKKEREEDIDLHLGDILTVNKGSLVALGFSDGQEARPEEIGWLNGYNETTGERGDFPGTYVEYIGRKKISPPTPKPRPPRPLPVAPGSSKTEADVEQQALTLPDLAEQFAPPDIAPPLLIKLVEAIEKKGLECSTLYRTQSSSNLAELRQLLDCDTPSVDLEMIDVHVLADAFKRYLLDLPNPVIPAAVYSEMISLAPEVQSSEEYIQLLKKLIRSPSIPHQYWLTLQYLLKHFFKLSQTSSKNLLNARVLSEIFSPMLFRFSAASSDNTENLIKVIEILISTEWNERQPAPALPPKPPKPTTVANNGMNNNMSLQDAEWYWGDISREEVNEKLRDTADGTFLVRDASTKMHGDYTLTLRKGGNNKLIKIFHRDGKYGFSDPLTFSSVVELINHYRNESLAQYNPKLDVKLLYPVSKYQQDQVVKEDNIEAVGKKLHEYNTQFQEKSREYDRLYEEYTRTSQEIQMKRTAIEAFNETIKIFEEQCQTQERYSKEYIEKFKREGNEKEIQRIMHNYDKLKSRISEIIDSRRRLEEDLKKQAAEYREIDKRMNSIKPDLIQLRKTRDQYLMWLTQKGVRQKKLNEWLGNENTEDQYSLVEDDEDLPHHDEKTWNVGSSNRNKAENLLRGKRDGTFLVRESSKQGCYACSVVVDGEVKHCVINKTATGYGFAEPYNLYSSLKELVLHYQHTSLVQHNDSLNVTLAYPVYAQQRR

Row | Compound | IC50 [µM]
1 | NC1CCN(c2nc(-c3cccc4[nH]ncc34)nc(N3CCOCC3)n2)CC1 [Compound 1222, 1-8-[4-1-(1H-indazol-4-yl)-6-5-(morpholin-4-yl)-1,3,5-triazin-2-yl]piperidin-4-amine] | < 5
2 | CN(C)C(=O)CCNc1nc(-c2cccc3[nH]ncc23)nc(N2CCOCC2)n1 [Compound 1223, 3-((4-(1H-indazol-4-yl)-6-morpholino-1,3,5-triazin-2-yl)amino)-N,N-dimethylpropanamide] | < 5
3 | c1cc(-c2nc(-c3cccc4[nH]ncc34)nc(N3CCOCC3)n2)c2cn[nH]c2c1 [Compound 1224, 4-12-[4-3-(1H-indazol-4-yl)-6-5-(morpholin-4-yl)-1,3,5-triazin-2-yl]-1H-indazole] | < 5
4 | c1cc(-c2nc(NC3CCOCC3)nc(N3CCOCC3)n2)c2cn[nH]c2c1 [Compound 1225, 4-(1H-indazol-4-yl)-6-morpholino-N-(tetrahydro-2H-pyran-4-yl)-1,3,5-triazin-2-amine] | < 5
5 | Cc1nc(-c2cccc3[nH]ncc23)nc(N2CCOCC2)n1 [Compound 1226, 4-7-[4-3-methyl-6-5-(morpholin-4-yl)-1,3,5-triazin-2-yl]-1H-indazole] | < 5
6 | O=C(O)CCNc1nc(-c2cccc3[nH]ncc23)nc(N2CCOCC2)n1 [Compound 1227, 3-((4-(1H-indazol-4-yl)-6-morpholino-1,3,5-triazin-2-yl)amino)propanoic acid] | < 5
7 | CN1CCN(c2nc(-c3cccc4[nH]ncc34)nc(N3CCOCC3)n2)CC1 [Compound 1228, 4-18-[4-3-(4-15-methylpiperazin-1-yl)-6-5-(morpholin-4-yl)-1,3,5-triazin-2-yl]-1H-indazole] | < 5
8 | c1cc(-c2nc(N3CCNCC3)nc(N3CCOCC3)n2)c2cn[nH]c2c1 [Compound 1229, 4-17-[4-5-(morpholin-4-yl)-6-3-(piperazin-1-yl)-1,3,5-triazin-2-yl]-1H-indazole] | < 5
9 | O=C1CN(c2nc(-c3cccc4[nH]ncc34)nc(N3CCOCC3)n2)CCN1 [Compound 1230, 4-7-[4-1-(1H-indazol-4-yl)-6-5-(morpholin-4-yl)-1,3,5-triazin-2-yl]piperazin-2-one] | < 5
10 | Nc1nc(-c2cccc3[nH]ncc23)nc(N2CCOCC2)n1 [Compound 1231, 4-2-(1H-indazol-4-yl)-6-0-(morpholin-4-yl)-1,3,5-triazin-2-amine] | > 5
11 | CC(C)(CO)Nc1nc(-c2cccc3[nH]ncc23)nc(N2CCOCC2)n1 [Compound 1232, 2-((4-(1H-indazol-4-yl)-6-morpholino-1,3,5-triazin-2-yl)amino)-2-methylpropan-1-ol] | < 5
12 | c1cc(-c2nc(N3CCOCC3)nc(N3CCOCC3)n2)c2cn[nH]c2c1 [Compound 1233, 4-8-[4-3,6-5-bis(morpholin-4-yl)-1,3,5-triazin-2-yl]-1H-indazole] | < 5
13 | CC(Nc1nc(-c2cccc3[nH]ncc23)nc(N2CCOCC2)n1)C(N)=O (stereo not shown) [Compound 1234, 2-((4-(1H-indazol-4-yl)-6-morpholino-1,3,5-triazin-2-yl)amino)propanamide] | < 5
14 | CC(C)(Nc1nc(-c2cccc3[nH]ncc23)nc(N2CCOCC2)n1)C(=O)O [Compound 1235, 2-((4-(1H-indazol-4-yl)-6-morpholino-1,3,5-triazin-2-yl)amino)-2-methylpropanoic acid] | < 5
15 | O=C(O)CNc1nc(-c2cccc3[nH]ncc23)nc(N2CCOCC2)n1 [Compound 1236, 2-((4-(1H-indazol-4-yl)-6-morpholino-1,3,5-triazin-2-yl)amino)acetic acid] | < 5
16 | N-[(4E)-1-8-[4-1-(1-21-{4-24-[(4E)-4-37-(hydroxyimino)azepan-1-yl]-6-26-(morpholin-4-yl)-1,3,5-triazin-2-yl}-1H-indazol-4-yl)-6-5-(morpholin-4-yl)-1,3,5-triazin-2-yl]azepan-4-ylidene]hydroxylamine [Compound 1123] | < 5
